Measured values: patent US6207399A, “Methods of determining endogenous thrombin potential (ETP) and thrombin substrates for use in said methods” (Hemker; Hendrik Coenraad, priority 1995, dated 2001)
Square brackets hold non-standard residues; d marks the D form. Peptide text beside a SMILES is read from it. * marks the point of attachment. pNA = O=[N+]([O-])c1ccc(N*)cc1; Tos = Cc1ccc(S(=O)(=O)*)cc1; Pip = O=C(O)[C@@H]1CCCCN1; Nle = CCCC[C@H](N)C(=O)O; Orn = NCCC[C@H](N)C(=O)O

Key:
Assay type in all cases: biochemical
thrombin = thrombin (Homo sapiens, UniProt P00734); experiment: Kinetic parameters of hydrolysis of the substrates by thrombin in buffer A at 37° C. (Example 4, Table 3); set-up: Pure human α-thrombin; gift of Dr. T. Lindhout (University of Limburg, Maastricht); key to Thrombin kcat: NH: no hydrolysis; conditions: for Km / Thrombin kcat / Thrombin kcat /Km: buffer A, 37° C.
Description: (§1) Kinetic parameters: The hydrolysis experiments were run in buffer A at 37° C. The liberation of p-nitroaniline was monitored at 405 nm in a dual wavelength (405-546 nm) spectrophotometer made in our workshop, using a personal computer for data recording. In a polystyrene microcuvette (total volume 500 μL), buffer A and substrate solution were added to obtain a final substrate concentration between 200 to 2000 μM. After 5 min of incubation at 37° C., enzyme solution was added to achieve a final concentration between 0.5 to 50 nM. The measurement was carried out at 37° C. in a thermostated cuvette-holder. The Michaelis constant (Km) and the catalytic constant (kcat) were obtained by measuring the initial reaction velocities at different substrate concentrations. The data obtained were fitted by linear regression on the Michaelis-Menten equation.
(§2) Kinetic parameters: The Km and kcat values for each substrate were determined at an enzyme concentration of 0.5-50 nM (thrombin) and 50 nM factor Xa. From the initial reaction velocities, measured for at least six substrate concentrations between 200 and 2000 μM, the Km and kcat values were calculated by linear regression on the Michaelis-Menten curve. Table 3 gives an overview of the kinetic parameters of the different substrates hydrolyzed by thrombin and by factor Xa in buffer A.

factor Xa [1] = target: T1, factor Xa (Homo sapiens, UniProt P00742); experiment: Kinetic parameters of hydrolysis of the substrates by factor Xa in buffer A at 37° C. (Example 4, Table 3); set-up: key to Factor Xa kcat: NH: no hydrolysis; conditions: for Factor Xa kcat / Factor Xa kcat /Km / Km: buffer A, 37° C., 50 nM factor Xa
T1 construct: human factor Xa samples; gift of Dr. T. Lindhout (University of Limburg, Maastricht)
Description: as §1, §2

human α-thrombin = target: T2, human α-thrombin (Homo sapiens, UniProt P00734); experiment: Kinetics of hydrolysis of substrates by human α-thrombin in buffer A at 37° C. (Example 2, Table 1); set-up: key to kcat: NH: not hydrolyzed by thrombin
T2 construct: Pure human α-thrombin; gift of Dr. T. Lindhout (University of Limburg, Maastricht)
Description: as §1, with “between 1” for “between 200”, “to 100” for “to 50”, “measuring” for “measuring the”
(§3) Kinetic parameters: In a preliminary experiment, the substrate was hydrolyzed under the following conditions: enzyme concentration: 10 to 20 nM, substrate concentration: 200 μM in buffer A to get an impression of the initial velocity. […] The results are given in table 1 and 2 for thrombin and factor Xa respectively. The Km and kcat for each substrate were determined from the initial velocities measured for at least six substrate concentrations in the concentration range as given. The enzyme concentration used gives a good signal to noise ratio. The data given are obtained from one or two experiments. The data from table 1 and 2 were only used as the first selection criterion to get a rough impression of the hydrolysis behaviour. Notwithstanding the preliminary character of the measurement it was helpful in the design of the substrates of our interest.

factor Xa [2] = target: T1, factor Xa; experiment: Kinetics of hydrolysis of substrates by human factor Xa in buffer A at 37° C. (Example 2, Table 2); set-up: key to kcat: NH: not hydrolyzed by factor Xa
Description: as §1, with “between 1” for “between 200”, “to 100” for “to 50”, “measuring” for “measuring the”
as §3

T1 sequence (P00742 41-179 limits assumed): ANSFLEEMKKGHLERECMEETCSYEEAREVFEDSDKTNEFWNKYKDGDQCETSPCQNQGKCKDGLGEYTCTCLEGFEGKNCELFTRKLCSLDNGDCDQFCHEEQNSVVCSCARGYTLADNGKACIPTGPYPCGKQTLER
T1 sequence (P00742 235-488 limits assumed): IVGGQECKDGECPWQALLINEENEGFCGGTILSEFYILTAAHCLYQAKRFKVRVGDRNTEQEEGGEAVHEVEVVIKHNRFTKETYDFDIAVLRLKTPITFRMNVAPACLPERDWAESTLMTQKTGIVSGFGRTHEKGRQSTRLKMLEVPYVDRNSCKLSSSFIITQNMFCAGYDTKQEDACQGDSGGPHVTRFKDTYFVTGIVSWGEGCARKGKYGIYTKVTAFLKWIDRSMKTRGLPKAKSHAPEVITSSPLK

Structure (SMILES) | Thrombin kcat (thrombin) | Factor Xa kcat (factor Xa [1]) | Km (human α-thrombin) | kcat (human α-thrombin) | kcat /Km (human α-thrombin) | Km (factor Xa [2]) | kcat (factor Xa [2]) | kcat /Km (factor Xa [2]) | also measured
Cl.Cl.NCCCC[C@H](NC(=O)[C@@H]1CCCN1C(=O)[C@H](N)Cc1ccccc1)C(=O)Nc1ccc([N+](=O)[O-])cc1 [2HCl.H-D-Phe-Pro-Lys-pNA] (H-[dF]-Pro-Lys-pNA) | 90 s⁻¹ | NH | 35 µM | 90.4 s⁻¹ | 2.58e+06 M/s |  |  |  | Km (thrombin): 35 µM; Thrombin kcat /Km (thrombin): 2.58e+06 M/s
CC(C)[C@H](NC(=O)CNC(=O)CNC(=O)[C@@H]1CCCN1C(=O)[C@@H](N)CCC(=O)O)C(=O)N[C@@H](CCCNC(=N)N)C(=O)Nc1ccc([N+](=O)[O-])cc1 [2HCl.H-EPGGVR-pNA, 2HCl.H-Glu-Pro-Gly-Gly-Val-Arg-pNA] (H-EPGGVR-pNA) | NH | 0.45 s⁻¹ |  |  |  |  |  |  | Factor Xa kcat /Km (factor Xa [1]): 468 M/s; Km (factor Xa [1]): 961 µM
CCCC[C@H](NC(=O)[C@@H](NC(=O)CN)C(C)C)C(=O)Nc1ccc([N+](=O)[O-])cc1.Cl [HCl.H-Gly-Val-Nle-pNA] (H-Gly-Val-[Nle]-pNA) | NH | NH |  |  |  |  |  |  | hydrolysis by thrombin (text on Table 3) (thrombin): hydrolysed by neither thrombin nor Factor Xa; hydrolysis by Factor Xa (text on Table 3) (factor Xa [1]): hydrolysed by neither thrombin nor Factor Xa
CC(C)[C@H](NC(=O)CNC(=O)[C@@H]1CCCN1C(=O)CNC(=O)[C@@H](N)CCC(=O)O)C(=O)N[C@@H](CCCNC(=N)N)C(=O)Nc1ccc([N+](=O)[O-])cc1 [2HCl.H-EGPGVR-pNA, 2HCl.H-Glu-Gly-Pro-Gly-Val-Arg-pNA] (H-EGPGVR-pNA) | 9.07 s⁻¹ | 3.41 s⁻¹ |  |  |  |  |  |  | Km (thrombin): 1070 µM; Thrombin kcat /Km (thrombin): 8440 M/s; Factor Xa kcat /Km (factor Xa [1]): 1560 M/s; Km (factor Xa [1]): 2190 µM
CC(C)[C@H](NC(=O)[C@@H](N)CCC(=O)O)C(=O)N[C@@H](CCCNC(=N)N)C(=O)Nc1ccc([N+](=O)[O-])cc1.Cl.Cl [2HCl.H-Glu-Val-Arg-pNA] (H-Glu-Val-Arg-pNA) | 1.44 s⁻¹ | 1.07 s⁻¹ |  |  |  |  |  |  | Km (thrombin): 932 µM; Thrombin kcat /Km (thrombin): 1540 M/s; Factor Xa kcat /Km (factor Xa [1]): 709 M/s; Km (factor Xa [1]): 1510 µM
CC(C)[C@H](NC(=O)OCCS(C)(=O)=O)C(=O)N[C@@H](CCCCN)C(=O)Nc1ccc([N+](=O)[O-])cc1.Cl [Msc-Val-Lys-pNA.HCl] | NH | NH |  |  |  |  |  |  | 
CC(C)[C@H](NC(=O)CNC(=O)[C@@H](N)CCC(=O)O)C(=O)N[C@@H](CCCNC(=N)N)C(=O)Nc1ccc([N+](=O)[O-])cc1 [2HCl.H-Glu-Gly-Val-Arg-pNA] (H-EGVR-pNA) | 3.51 s⁻¹ | 0.93 s⁻¹ |  |  |  |  |  |  | Km (thrombin): 3270 µM; Thrombin kcat /Km (thrombin): 1070 M/s; Factor Xa kcat /Km (factor Xa [1]): 638 M/s; Km (factor Xa [1]): 1430 µM
CC(C)C(N)C(=O)NC(CCCCN)C(=O)Nc1ccc([N+](=O)[O-])cc1.Cl.Cl (stereo not drawn) [2HCl.H-Val-Lys-pNA] | NH | NH |  |  |  |  |  |  | 
CC(C)[C@H](NC(=O)CN)C(=O)N[C@@H](CCCN)C(=O)Nc1ccc([N+](=O)[O-])cc1.Cl.Cl [2HCl.H-Gly-Val-Orn-pNA] (H-Gly-Val-[Orn]-pNA) | NH | NH |  |  |  |  |  |  | hydrolysis by thrombin (text on Table 3) (thrombin): hydrolysed by neither thrombin nor Factor Xa; hydrolysis by Factor Xa (text on Table 3) (factor Xa [1]): hydrolysed by neither thrombin nor Factor Xa
COC(=O)C(C)C(=O)NCC(=O)NC(CCCNC(=N)N)C(=O)Nc1ccc([N+](=O)[O-])cc1.Cl (mixture of isomers) [MMZ-Gly-Arg-pNA.HCl] |  |  | 1740 µM | 6.60 s⁻¹ | 3800 M/s | 6400 µM | 43.9 s⁻¹ | 6860 M/s | 
COC(=O)C(C)(C)C(=O)N[C@@H](C)C(=O)N[C@@H](CCCNC(=N)N)C(=O)Nc1ccc([N+](=O)[O-])cc1.Cl [DMMZ-Ala-Arg-pNA.HCl] |  |  | 565 µM | 4.08 s⁻¹ | 7220 M/s | 2240 µM | 11.04 s⁻¹ | 4930 M/s | 
CC(C)[C@H](NC(=O)CNC(=O)CNC(=O)CNC(=O)[C@@H](N)CCC(=O)O)C(=O)N[C@@H](CCCNC(=N)N)C(=O)Nc1ccc([N+](=O)[O-])cc1 [2HCl.H-EGGGVR-pNA, 2HCl.H-Glu-Gly-Gly-Gly-Val-Arg-pNA] (H-EGGGVR-pNA) | 0.27 s⁻¹ | 0.30 s⁻¹ |  |  |  |  |  |  | Km (thrombin): 379 µM; Thrombin kcat /Km (thrombin): 704 M/s; Factor Xa kcat /Km (factor Xa [1]): 201 M/s; Km (factor Xa [1]): 1490 µM
COC(=O)CC(=O)N[C@@H](C(=O)N[C@@H](CCCNC(=N)N)C(=O)Nc1ccc([N+](=O)[O-])cc1)C(C)C.Cl [MZ-D-Val-Arg-pNA.HCl] |  |  | 1310 µM | 0.146 s⁻¹ | 111 M/s | 1820 µM | 0.13 s⁻¹ | 69.5 M/s | 
Cl.N=C(N)NCCC[C@H](NC(=O)CNS(=O)(=O)c1ccc2ccccc2c1)C(=O)Nc1ccc([N+](=O)[O-])cc1 [βNS-Gly-Arg-pNA.HCl] |  |  |  | NH |  | 116 µM | 2.00 s⁻¹ | 17300 M/s | 
CC(C)[C@H](NC(=O)CN)C(=O)N[C@@H](CCCCN)C(=O)Nc1ccc([N+](=O)[O-])cc1.Cl.Cl [2HCl.H-Gly-Val-Lys pNA, 2HCl.H-Gly-Val-Lys-pNA] (H-Gly-Val-Lys-pNA) | 0.20 s⁻¹ | NH |  |  |  |  |  |  | hydrolysis by thrombin (text on Table 3) (thrombin): hydrolysed by thrombin; Km (thrombin): 986 µM; Thrombin kcat /Km (thrombin): 198 M/s; hydrolysis by Factor Xa (text on Table 3) (factor Xa [1]): not by Factor Xa
CC(C)[C@H](NC(=O)OCCS(C)(=O)=O)C(=O)N[C@@H](CCCN)C(=O)Nc1ccc([N+](=O)[O-])cc1.Cl [Msc-Val-Orn-pNA.HCl] | NH | NH |  |  |  |  |  |  | 
CCC(CC)(C(=O)NCC(=O)N[C@@H](CCCNC(=N)N)C(=O)Nc1ccc([N+](=O)[O-])cc1)C(=O)OC.Cl [DEMZ-Gly-Arg-pNA.HCl] |  |  | 866 µM | 1.73 s⁻¹ | 1990 M/s | 2320 µM | 4.54 s⁻¹ | 1960 M/s | 
Cc1ccc(S(=O)(=O)NCC(=O)N[C@@H](CCCNC(=N)N)C(=O)Nc2ccc([N+](=O)[O-])cc2)cc1.Cl [pTS-Gly-Arg-pNA.HCl] (Tos-Gly-Arg-pNA) |  |  |  | NH |  | 233 µM | 9.26 s⁻¹ | 39800 M/s | 
CCCC[C@H](NC(=O)[C@@H](NC(=O)OCCS(C)(=O)=O)C(C)C)C(=O)Nc1ccc([N+](=O)[O-])cc1 [Msc-Val-Nle-pNA] | NH | NH |  |  |  |  |  |  | 
Cl.N[C@H](Cc1ccccc1)C(=O)N1CCCC[C@H]1C(=O)N[C@@H](CCC(=O)O)C(=O)Nc1ccc([N+](=O)[O-])cc1 [HCl.H-D-Phe-Pip-Glu-pNA] (H-[dF]-[Pip]-Glu-pNA) |  |  | 474 µM | 0.35 s⁻¹ | 739 M/s |  | NH |  | 
NC(N)=NCCC[C@H](NC(=O)[C@@H]1CCCCN1C(=O)[C@H](N)Cc1ccccc1)C(=O)Nc1ccc([N+](=O)[O-])cc1 [2HCl.H-D-Phe-Pip-Arg-pNA] |  |  | 5.62 µM | 236.5 s⁻¹ | 4.21e+07 M/s | 174 µM | 7.49 s⁻¹ | 42900 M/s | 
COC(=O)C(C)(C)C(=O)NCC(=O)N[C@@H](CCCNC(=N)N)C(=O)Nc1ccc([N+](=O)[O-])cc1.Cl [DMMZ-Gly-Arg-pNA.HCl] |  |  | 902 µM | 6.44 s⁻¹ | 7140 M/s | 2840 µM | 13.6 s⁻¹ | 4790 M/s | 
